This is an account of results in patent US20160007597A1, “TREATING AGENT FOR PLANT CELL WALLS, SUBSTANCE DELIVERY METHOD USING TREATING AGENT, AND SUBSTANCE DELIVERY SYSTEM” (SUNTORY HOLDINGS LIMITED, priority 2013, published 2016).

One data set concerns leaves. Here is the method:
To verify the migration of the FT protein applied to leaves, the shoot apex after application was sampled and analyzed by Western blotting in an attempt to detect the FT protein. To ensure long-term application to leaves, concentration studies were conducted for EDTA.

A further data set relates to onion epidermal cells. Description: Cell wall permeability: intracellular uptake of GFP or GFP-FT in onion bulb epidermal cells after trypsin treatment (fluorescence microscopy). Type of data set: cell-based. Particulars: 0.1 mg GFP, 20 μM R9 peptide. Here is the method: Various test solutions containing a fluorescent protein, GFP or GFP-FT, and the R9 peptide were prepared and applied to onion bulbs for verification of GFP uptake. The ingredients of the test solutions verified are shown below:
salt (NaCl), acidic buffer (citric acid), organic solvent (toluene, ethanol), cell wall lyase (pectolyase), surfactant (saponin, Silwet L-77, Tween 20, Triton X-100, CHAPS, CTAB, SDS), chelator (EGTA, EDTA, CDTA, BAPTA), DMSO, and glycerol.
Onion bulbs were cut into boat-shaped pieces, and test solutions (100 μl each) prepared at various concentration conditions (0.1× PBS, 1 to 100 mM chelator, 0.005% to 0.05% surfactant, 0.1 mg GFP, 20 μM R9 peptide) were applied to their surface. Each sample was allowed to stand in a dish at room temperature for 12 hours while being kept under humid conditions. Then, the test solutions were removed and the samples were washed with distilled water. After a 0.25% trypsin solution was applied in 100 μl volumes, the samples were allowed to stand for 30 minutes. After removal of the trypsin solution, the samples were washed with distilled water and their epidermal cell layers were peeled to prepare specimens, which were then observed for intracellular uptake of GFP under a fluorescence microscope (Leica, DM6000B).

For data set [1], the system named is in vitro shoots of torenia. Description: Induction of flower buds in in vitro shoots of torenia. Type of data set: in vivo. The settings on record: torenia in test tubes; 33 μg/ml FT protein, 20 μM R9 peptide, 0.1× PBS, 1 mM EDTA, 0.005% Silwet L-77; applied five times every 2 to 3 days. Here is the method: (§1) In most cases, in vitro shoots of torenia will form no flower buds in test tubes. Likewise, in vitro shoots of petunia will form no flower buds under short-day conditions. In these in vitro shoots, the FT protein was applied to their leaf surface in an attempt to induce flower buds. To the shoot apex and leaf surface of torenia and petunia cultivated in test tubes, a test solution (33 μg/ml FT protein, 20 μM R9 peptide, 0.1× PBS, 1 mM EDTA, 0.005% Silwet L-77) was applied by being spread thinly to ensure a uniform distribution. Application was repeated five times every 2 to 3 days, and culture was also continued thereafter. As a result, flower buds were formed at around 40 days after application and eventually brought into flower in test tubes (FIG. 4).

In data set [2] the test system is in vitro shoots of petunia. Description: Induction of flower buds in in vitro shoots of petunia. It is filed as in vivo. Particulars: petunia in test tubes; 33 μg/ml FT protein, 20 μM R9 peptide, 0.1× PBS, 1 mM EDTA, 0.005% Silwet L-77; applied five times every 2 to 3 days. As for the experimental part:
as §1

The test system of data set [3] is torenia bud cuttings (shoot apex). Description: Migration of FT protein applied to leaves to the shoot apex, detected by Western blotting. Particulars: Condition 3: FT protein, 20 μM R9 peptide, 0.1× PBS, 1 mM EDTA, 0.005% Silwet L-77, applied to leaves twice; sampled one week after the first application. Type of data set: in vivo. Here is the method:
Bud cuttings were prepared from torenia's branches each including the shoot apex. These branches were cut to an even length of approximately 10 cm containing three nodes or so, each of which was put into a 5 ml tube containing 4 ml of 0.1× PBS, followed by covering the mouth of each tube with a parafilm to avoid evaporation of PBS. Four bud cuttings were prepared for each test group, and test solutions (90 μl each) prepared under three conditions (Condition 1: 0.1× PBS, 1 mM EDTA, 0.005% Silwet L-77; Condition 2: 33 μg/ml FT protein, 0.1× PBS, 1 mM EDTA, 0.005% Silwet L-77; Condition 3: FT protein, 20 μM R9 peptide, 0.1× PBS, 1 mM EDTA, 0.005% Silwet L-77) were applied by being spread thinly over leaves at a position which was two nodes (about 3 cm) apart from the shoot apex. After air drying, these samples were maintained at 25° C. in a thermostatic incubator.
After 3 days, the test solutions were applied again, and after one week of the first application, the shoot apexes were sampled. Proteins were extracted from the shoot apex samples by the acetone method. 250 μl of an extraction buffer (10 mM Tris-HCl (pH 8.0), 0.1% CHAPS, 4.5 mM NaCl, 0.1 mM DTT, 0.2 mM EDTA, complete ULTRA1 tablets (Roche Diagnostics)) was added to each shoot apex sample obtained from 4 bud cuttings, followed by sufficient homogenization in a mixer together with zirconia beads of 4 mm diameter. […]

The subject of the next data set is protoplasts of torenia. The data set can be described thus: GFP uptake into torenia protoplasts in the presence of R9 peptide (fluorescence microscopy). Type of data set: cell-based. The settings on record: 0.1 mg GFP. Here is the method: To verify that the R9 peptide was also evenly effective for plant cells other than cultured cells, protoplasts of torenia were used and observed for their uptake of green fluorescent protein (GFP) in the presence of the R9 peptide. Torenia leaves (0.5 g) were treated in an enzyme solution (1% Onozuka RS, 0.1% pectolyase Y-23, 0.45 M mannitol) at 30° C. for 2 hours to prepare protoplasts. The protoplasts were washed with 0.45 M mannitol and then divided into 50 μl aliquots, followed by centrifugation to prepare protoplasts. The protoplasts were each suspended in 50 μl of a buffer (0.45 M mannitol, 1× PBS, 0.1 mg GFP, (0, 20, 200 μM) R9 peptide) and observed for intracellular migration of GFP under a fluorescence microscope (FIG. 1).

The mark [4] stands for this setting: combination of 1 to 50 mM EDTA or EGTA and 0.005% to 0.01% Silwet L-77 or Tween 20, 12 hours.

Like-named read-outs stand apart in the source and are kept apart here.

On to `O=C(O)CN(CCN(CC(=O)O)CC(=O)O)CC(=O)O` [EDTA, ethylenediaminetetraacetic acid], for which the results for the damage to leaves result in the data set with leaves (1 mM EDTA) and in the data set on leaves (100 mM EDTA) were “able to be used without any problems” and “cause damage to leaves”, respectively. Besides, in the data set with onion epidermal cells (setting [4]), the “intracellular GFP fluorescence after trypsin treatment” value (shortened to “intracellular GFP fluorescence”) was “granular GFP fluorescence was strongly observed”.
For `O=C(O)CN(CCOCCOCCN(CC(=O)O)CC(=O)O)CC(=O)O` [EGTA, O,O′-bis(2-aminoethyl)ethylene glycol-N,N,N′,N′-tetraacetic acid], the “intracellular GFP fluorescence” value with onion epidermal cells (setting [4]) was “granular GFP fluorescence was strongly observed”.
In the case of “FT protein: FLOWERING LOCUS T protein, promoter for flowering in whole plants (florigen)”, the “time of flower bud formation after application” value in data set [1] and in data set [2] was “around 40 days” throughout. Also, in data set [3], the “FT protein signal in the shoot apex (Western blotting)” value is “FT protein signals were able to be detected in the shoot apex”.
For “R9 peptide: cell penetrating peptide composed of 9 arginine residues (RRRRRRRRR)”, the “number of cells showing GFP uptake with increase in R9 peptide concentration” value in the data set on protoplasts of torenia (0, 20, 200 μM R9 peptide) is given as “cells showing GFP uptake were confirmed to increase in number”. In addition, the “GFP uptake into protoplasts” value in the data set with protoplasts of torenia (200 μM R9 peptide, 0.45 M mannitol, 1× PBS) is recorded as “good GFP uptake was observed”. Besides, in the data set with onion epidermal cells (chelator-free and surfactant-free test solution, 12 hours at room temperature), the “intracellular GFP fluorescence” value was “no fluorescence was observed within the cells”.
In the case of “polyoxyethylene sorbitan monolaurate [Tween 20]”, the “intracellular GFP fluorescence” value with onion epidermal cells (setting [4]) is given as “granular GFP fluorescence was strongly observed”.
